{"source": "patent US20040191115A1", "about": "(priority 2003, published 2004)", "key": {"[1]": {"tested_on": "bacillus atrophaeus spores", "details": "normal machine operation, cartons running", "procedure": "(§1) Studies were conducted to determine the microbial eradication on mandrels 34 that were subjected to vaporized sterilant introduced at the heaters 40. […] The efficacy of the mandrel sterilization was studied for both the mandrel caps 35 and the mandrel side tubes 37 (see FIG. 3).\n(§2) Each of the studies was further carried out using a testing media of bacillus atrophaeus spores for inoculating the mandrels. The mandrels were inoculated by spraying, using an aerating spray bottle having a solution with a concentration of about 7 log bacillus spores. The mandrels were then allowed to air dry. Controls were swabbed using cotton swabs to assure that the mandrels were properly inoculated. Following the machine operating period of the test, the mandrels were swabbed and the bacillus spores transferred to an agar media for incubation of the spores (at 32° C. for 48 hours) and subsequent recovery."}, "[2]": {"tested_on": "bacillus atrophaeus spores", "details": "3.12 percent H2O2, no machine operation, without cartons; for average count of colony forming units for the time period / log of average count for the time period: mean of samples", "procedure": "as §1, §2\nIn this part of the analysis, the form, fill and seal machine was operated without cartons and without indexing (rotation) of the mandrels."}, "[3]": {"details": "16.76 percent H2O2, time 10 min"}, "[4]": {"details": "16.76 percent H2O2, time 15 min"}, "[5]": {"details": "16.76 percent H2O2, time 20 min"}, "[6]": {"details": "16.76 percent H2O2, time 30 min"}}, "note": "Where “and” joins values, the source holds several entries; their conditions need not be identical. Identical values can stand only once. Like-named read-outs stand apart in the source and are kept apart here.", "data": [{"smiles": "OO", "note": "[hydrogen peroxide]", "values": [{"measurement": "Microbial Load (CFU/mandrel)", "setting": "[1]; 3.12 percent H2O2, time 0 min", "result": 848000, "unit": "CFU/mandrel"}, {"measurement": "Microbial Reduction (Log/mandrel)", "setting": "[1]; 3.12 percent H2O2, time 0 min", "result": 0.00, "unit": "Log/mandrel"}, {"measurement": "Microbial Load (CFU/mandrel)", "setting": "[1]; 3.12 percent H2O2, time 10 min", "result": 187000, "unit": "CFU/mandrel"}, {"measurement": "Microbial Reduction (Log/mandrel)", "setting": "[1]; 3.12 percent H2O2, time 10 min", "result": 0.66, "unit": "Log/mandrel"}, {"measurement": "Microbial Load (CFU/mandrel)", "setting": "[1]; 3.12 percent H2O2, time 20 min", "result": 33400, "unit": "CFU/mandrel"}, {"measurement": "Microbial Reduction (Log/mandrel)", "setting": "[1]; 3.12 percent H2O2, time 20 min", "result": 1.40, "unit": "Log/mandrel"}, {"measurement": "Microbial Load (CFU/mandrel)", "setting": "[1]; 3.12 percent H2O2, time 30 min", "result": 14100, "unit": "CFU/mandrel"}, {"measurement": "Microbial Reduction (Log/mandrel)", "setting": "[1]; 3.12 percent H2O2, time 30 min", "result": 1.78, "unit": "Log/mandrel"}, {"measurement": "Microbial Load (CFU/mandrel)", "setting": "[1]; 3.12 percent H2O2, time 40 min", "result": 2180, "unit": "CFU/mandrel"}, {"measurement": "Microbial Reduction (Log/mandrel)", "setting": "[1]; 3.12 percent H2O2, time 40 min", "result": 2.59, "unit": "Log/mandrel"}, {"measurement": "Microbial Load (CFU/mandrel)", "setting": "[1]; 5.77 percent H2O2, time 0 min", "result": 566000, "unit": "CFU/mandrel"}, {"measurement": "Microbial Reduction (Log/mandrel)", "setting": "[1]; 5.77 percent H2O2, time 0 min", "result": 0.00, "unit": "Log/mandrel"}, {"measurement": "Microbial Load (CFU/mandrel)", "setting": "[1]; 5.77 percent H2O2, time 10 min", "result": 107000, "unit": "CFU/mandrel"}, {"measurement": "Microbial Reduction (Log/mandrel)", "setting": "[1]; 5.77 percent H2O2, time 10 min", "result": 0.72, "unit": "Log/mandrel"}, {"measurement": "Microbial Load (CFU/mandrel)", "setting": "[1]; 5.77 percent H2O2, time 20 min", "result": 7300, "unit": "CFU/mandrel"}, {"measurement": "Microbial Reduction (Log/mandrel)", "setting": "[1]; 5.77 percent H2O2, time 20 min", "result": 1.89, "unit": "Log/mandrel"}, {"measurement": "Microbial Load (CFU/mandrel)", "setting": "[1]; 5.77 percent H2O2, time 30 min", "result": 42, "unit": "CFU/mandrel"}, {"measurement": "Microbial Reduction (Log/mandrel)", "setting": "[1]; 5.77 percent H2O2, time 30 min", "result": 4.13, "unit": "Log/mandrel"}, {"measurement": "Microbial Load (CFU/mandrel)", "setting": "[1]; 5.77 percent H2O2, time 40 min", "result": 4, "unit": "CFU/mandrel"}, {"measurement": "Microbial Reduction (Log/mandrel)", "setting": "[1]; 5.77 percent H2O2, time 40 min", "result": 5.15, "unit": "Log/mandrel"}, {"measurement": "Microbial Load (CFU/mandrel)", "setting": "[1]; 9.55 percent H2O2, time 0 min", "result": 483000, "unit": "CFU/mandrel"}, {"measurement": "Microbial Reduction (Log/mandrel)", "setting": "[1]; 9.55 percent H2O2, time 0 min", "result": 0.00, "unit": "Log/mandrel"}, {"measurement": "Microbial Load (CFU/mandrel)", "setting": "[1]; 9.55 percent H2O2, time 5 min", "result": 71000, "unit": "CFU/mandrel"}, {"measurement": "Microbial Reduction (Log/mandrel)", "setting": "[1]; 9.55 percent H2O2, time 5 min", "result": 0.83, "unit": "Log/mandrel"}, {"measurement": "Microbial Load (CFU/mandrel)", "setting": "[1]; 9.55 percent H2O2, time 10 min", "result": 5750, "unit": "CFU/mandrel"}, {"measurement": "Microbial Reduction (Log/mandrel)", "setting": "[1]; 9.55 percent H2O2, time 10 min", "result": 1.92, "unit": "Log/mandrel"}, {"measurement": "Microbial Load (CFU/mandrel)", "setting": "[1]; 9.55 percent H2O2, time 20 min", "result": 106, "unit": "CFU/mandrel"}, {"measurement": "Microbial Reduction (Log/mandrel)", "setting": "[1]; 9.55 percent H2O2, time 20 min", "result": 3.66, "unit": "Log/mandrel"}, {"measurement": "Microbial Load (CFU/mandrel)", "setting": "[1]; 9.55 percent H2O2, time 30 min", "result": 8, "unit": "CFU/mandrel"}, {"measurement": "Microbial Reduction (Log/mandrel)", "setting": "[1]; 9.55 percent H2O2, time 30 min", "result": 4.78, "unit": "Log/mandrel"}, {"measurement": "Microbial Load (CFU/mandrel)", "setting": "[1]; 16.76 percent H2O2, time 0 min", "result": 1020667, "unit": "CFU/mandrel"}, {"measurement": "Microbial Reduction (Log/mandrel)", "setting": "[1]; 16.76 percent H2O2, time 0 min", "result": 0.00, "unit": "Log/mandrel"}, {"measurement": "Microbial Load (CFU/mandrel)", "setting": "[1]; 16.76 percent H2O2, time 5 min", "result": 52967, "unit": "CFU/mandrel"}, {"measurement": "Microbial Reduction (Log/mandrel)", "setting": "[1]; 16.76 percent H2O2, time 5 min", "result": 1.22, "unit": "Log/mandrel"}, {"measurement": "Microbial Load (CFU/mandrel)", "setting": "[1]; [3]", "result": 1273, "unit": "CFU/mandrel"}, {"measurement": "Microbial Reduction (Log/mandrel)", "setting": "[1]; [3]", "result": 2.81, "unit": "Log/mandrel"}, {"measurement": "Microbial Load (CFU/mandrel)", "setting": "[1]; [4]", "result": 30, "unit": "CFU/mandrel"}, {"measurement": "Microbial Reduction (Log/mandrel)", "setting": "[1]; [4]", "result": 4.53, "unit": "Log/mandrel"}, {"measurement": "Microbial Load (CFU/mandrel)", "setting": "[1]; [5]", "result": 8, "unit": "CFU/mandrel"}, {"measurement": "Microbial Reduction (Log/mandrel)", "setting": "[1]; [5]", "result": 5.20, "unit": "Log/mandrel"}, {"measurement": "Microbial Load (CFU/mandrel)", "setting": "[1]; [6]", "result": 4, "unit": "CFU/mandrel"}, {"measurement": "Microbial Reduction (Log/mandrel)", "setting": "[1]; [6]", "result": 5.21, "unit": "Log/mandrel"}, {"measurement": "Microbial Load (CFU/mandrel)", "setting": "[1]; 35 percent H2O2, time 0 min", "result": 799000, "unit": "CFU/mandrel"}, {"measurement": "Microbial Reduction (Log/mandrel)", "setting": "[1]; 35 percent H2O2, time 0 min", "result": 0.00, "unit": "Log/mandrel"}, {"measurement": "Microbial Load (CFU/mandrel)", "setting": "[1]; 35 percent H2O2, time 5 min", "result": 959, "unit": "CFU/mandrel"}, {"measurement": "Microbial Reduction (Log/mandrel)", "setting": "[1]; 35 percent H2O2, time 5 min", "result": 2.92, "unit": "Log/mandrel"}, {"measurement": "Microbial Load (CFU/mandrel)", "setting": "[1]; 35 percent H2O2, time 10 min", "result": 1, "unit": "CFU/mandrel"}, {"measurement": "Microbial Load (CFU/mandrel)", "setting": "[1]; 35 percent H2O2, time 15 min", "result": 1, "unit": "CFU/mandrel"}, {"measurement": "Microbial Reduction (Log/mandrel)", "setting": "[1]; 35 percent H2O2, time 15 min", "result": 5.90, "unit": "Log/mandrel"}, {"measurement": "Microbial Load (CFU/mandrel)", "setting": "[1]; 35 percent H2O2, time 20 min", "result": 1, "unit": "CFU/mandrel"}, {"measurement": "Microbial Reduction (Log/mandrel)", "setting": "[1]; 35 percent H2O2, time 20 min", "result": 5.90, "unit": "Log/mandrel"}, {"measurement": "average count of colony forming units for the time period", "setting": "[2]; time 0 min", "result": "3.51E+05", "unit": "CFU/mandrel"}, {"measurement": "log of average count for the time period", "setting": "[2]; time 0 min", "result": 5.55, "unit": "log"}, {"measurement": "average count of colony forming units for the time period", "setting": "[2]; time 15 min", "result": "2.90E+05", "unit": "CFU/mandrel"}, {"measurement": "log of average count for the time period", "setting": "[2]; time 15 min", "result": 5.46, "unit": "log"}, {"measurement": "Average CFU/mL", "setting": "[2]; time 15 min", "result": "7.85E+04 CFU/mL and 6.65E+04 CFU/mL"}, {"measurement": "Average CFU/mandrel", "setting": "[2]; time 15 min", "result": "3.14E+05 CFU/mandrel and 2.66E+05 CFU/mandrel"}, {"measurement": "Log (of Average CFU/mandrel)", "setting": "[2]; time 15 min", "result": "5.50 Log and 5.42 Log"}, {"measurement": "Result #1 CFU/mL", "setting": "[2]; time 15 min", "result": "7.80E+04 CFU/mL and 4.70E+04 CFU/mL"}, {"measurement": "Result #2 CFU/mL", "setting": "[2]; time 15 min", "result": "7.90E+04 CFU/mL and 8.60E+04 CFU/mL"}, {"measurement": "Log Red. (Avg.)", "setting": "[2]; time 15 min relative to time zero", "result": 0.08, "unit": "Log"}, {"measurement": "average count of colony forming units for the time period", "setting": "[2]; time 30 min", "result": "2.72E+05", "unit": "CFU/mandrel"}, {"measurement": "log of average count for the time period", "setting": "[2]; time 30 min", "result": 5.43, "unit": "log"}, {"measurement": "Log (of Average CFU/mandrel)", "setting": "[2]; time 30 min", "result": "5.47 Log and 5.28 Log and 5.49 Log"}, {"measurement": "Result #1 CFU/mL", "setting": "[2]; time 30 min", "result": "7.40E+04 CFU/mL and 4.30E+04 CFU/mL and 7.80E+04 CFU/mL"}, {"measurement": "Log Red. (Avg.)", "setting": "[2]; time 30 min relative to time zero", "result": 0.11, "unit": "Log"}]}]}
